Marks after values point to notes of the source that are not given here.
Columns and labels:
[1] = test system: Staphylococcus epidermidis 174B; assay: MIC vs. Staphylococcus epidermidis 174B; assay type: cell-based; design: unit not given beside the values; settings: Table 2a
Description: (§1) Tables 2 and 2a summarize the minimal inhibitory concentrations (MIC's) at which illustrative formula I compounds and cephalothin inhibit certain microorganisms that are associated with mastitis, such as Staphylococcus aureus 10092 (Newbould strain).

[2] = test system: Pasteurella haemolytica 128K (bovine); assay: MIC vs. Pasteurella haemolytica 128K (bovine); assay type: cell-based; settings: for MIC against Pasteurella haemolytica Strain 128K: Table 3a, incubated at 37° overnight
Description: (§2) The formula I compounds are also active against certain Gram-negative species. Tables 3 and 3a show the MIC's of Formula I compounds against certain Gram-negative species.

[3] = test system: Streptococcus uberis 167I; assay: MIC vs. Streptococcus uberis 167I; assay type: cell-based; design: unit not given beside the values; settings: Table 2a
Description: as §1

[4] = test system: Streptococcus agalactiae 150G; assay: MIC vs. Streptococcus agalactiae 150G; assay type: cell-based; design: unit not given beside the values; settings: Table 2a
Description: as §1

[5] = test system: Staphylococcus aureus 10092 (Newbould strain); assay: MIC vs. S. aureus 10092 (Newbould strain); assay type: cell-based; design: unit not given beside the values; settings: for MIC vs. Staphylococcus aureus 10,092: Table 2a
Description: as §1

[6] = test system: Staphylococcus aureus 168H; assay: MIC vs. Staphylococcus aureus 168H; assay type: cell-based; design: unit not given beside the values; settings: Table 2a
Description: as §1

[7] = test system: Streptococcus dysgalactiae 152B; assay: MIC vs. Streptococcus dysgalactiae 152B; assay type: cell-based; design: unit not given beside the values; settings: Table 2a
Description: as §1

[8] = test system: Staphylococcus aureus 10092 (Newbould); assay: Induced Staphylococcus aureus mastitis model in lactating goats; assay type: in vivo; settings: S. aureus 10092 challenge, in peanut oil
Description: Sixteen lactating goats were selected based on the absence of Staphylococcus aureus in pre-challenge milk cultures. Maintenance ration was provided to the animals throughout the study. The goats were milked twice each day using a portable goat milker.
Milk samples were collected during the morning milking. One day prior to challenge, milk culture samples were collected from each half of the test animals to determine if there was a pre-existing infection. Additionally, a sample was collected from each half for Somatic Cell Count (SCC) determination. A milk culture sample and a sample for SCC were collected from each half 24 hours post-challenge and on Days +4 to +6, +8, +11, +13, and +15.
Udder scoring was performed during each milking using the following table:
General health observations and body temperature were recorded once a day following milking during the challenge and treatment periods.
Milk samples were submitted for analysis for SCC using an electronic somatic cell counting system.
Milk culture samples were assayed for bacterial culture by plating 1.0 mL and 0.1 mL of the milk sample directly onto duplicate blood agar plates. Additionally, dilutions […] the milk sample were plated. Plates were incubated overnight at 37° C.
Staphylococcus aureus 10092 (Newbould) was used as the challenge strain. The challenge culture was grown in Tryptic Soy Broth (TSB) from a lyovial stock overnight (16 hours) at 37° C. TSB (100 mL) was inoculated with 1 mL of the overnight culture and incubated at 37° C. with shaking for 4 hours. The culture was centrifuged at 9000 rpm for 10 minutes at 10° C.; supernatant was removed and the pellet was resuspended in phosphate buffered saline (PBS). Optimum O.D. reading at 650 nm was approximately 0.035. A 10-fold dilution series was prepared with saline to determine the CFU/mL, plating 10^−5, 10^−6, and 10^−7 dilutions onto duplicate blood agar plates. The 10^−7 dilution (approximately 10 CFU/mL) was used for the challenge material, yielding a challenge of 50 CFU/half with a 5-mL infusion.
Sixteen goats were used for the trial. During a one day pre-challenge period, milk samples were collected and temperatures were taken during the morning milking. Milk/udder evaluations were documented during the morning and afternoon milkings.
Staphylococcus aureus 10092 was infused into both halves in each of the goats. The goats were challenged following the morning milking and milked in the afternoon on the day of challenge. The challenge inoculum volume was 5 mL/half containing approximately 50 CFU S. aureus.
For the 24 hr post-challenge period milk samples were collected during the morning milking, and milk/udder evaluations made during the morning and afternoon milking.
Treatment was started at 36 hours post-challenge. Milk samples were collected for culture and SCC 24 hours post-challenge, prior to the morning milking, and the treatment period started following the afternoon milking.
Eight halves (4 goats) each were treated for 2 consecutive milkings 12 hours apart, following milking. […]
Following treatment, the goats were milked and observed for 15 days. Milk samples were collected on Days +4 to +6, +8, +11, +13, and +15 to determine if the infection had cleared.
Establishment of mastitis was determined by bacterial culturing, severity of udder scoring, somatic cell count results, and body temperature.
On Days +2 to +6, milk samples were collected for a colorimetric assay to determine whether the antibiotic was still present in the milk.

[9] = test system: Streptococcus faecalis; assay: MIC vs. Streptococcus faecalis; assay type: cell-based; design: unit not given beside the values; settings: Table 2a
Description: as §1

[10] = test system: Staphylococcus aureus 170C; assay: MIC vs. Staphylococcus aureus 170C; assay type: cell-based; design: unit not given beside the values; settings: Table 2a
Description: as §1

[11] = test system: Escherichia coli; assay: MIC vs. Escherichia coli; assay type: cell-based; design: unit not given beside the values; settings: Incubated at 37° C. overnight
Description: as §2

[12] = test system: Pasteurella multocida 10,102 (bovine); assay: MIC vs. Pasteurella multocida 10,102 (bovine); assay type: cell-based; settings: Incubated at 37° C. overnight
Description: as §2

[13] = test system: S. aureus F1C; assay: MIC vs. S. aureus F1C; assay type: cell-based, Staphylococcus aureus; design: unit not given beside the values; settings: Incubated at 37° C. overnight
Description: as §1

[14] = test system: Streptococcus dysgalactiae; assay: MIC vs. Streptococcus dysgalactiae; assay type: cell-based; design: unit not given beside the values; settings: Incubated at 37° C. overnight
Description: as §1

[15] = test system: Pasteurella haemolytica 129R (bovine); assay: MIC vs. Pasteurella haemolytica 129R (bovine); assay type: cell-based; settings: Incubated at 37° C. overnight
Description: as §2

[16] = test system: Pasteurella multocida 108E (bovine); assay: MIC vs. Pasteurella multocida 108E (bovine); assay type: cell-based; settings: Incubated at 37° C. overnight
Description: as §2

[17] = test system: S. aureus 174 C; assay: MIC vs. S. aureus 174 C; assay type: cell-based, Staphylococcus aureus; design: unit not given beside the values; settings: Incubated at 37° C. overnight
Description: as §1

[18] = test system: S. aureus ATCC 29213; assay: MIC vs. S. aureus ATCC 29213; assay type: cell-based, Staphylococcus aureus; design: unit not given beside the values; settings: Incubated at 37° C. overnight
Description: as §1

[19] = test system: Pasteurella multocida 1051 (swine); assay: MIC vs. Pasteurella multocida 1051 (swine); assay type: cell-based; settings: Incubated at 37° C. overnight
Description: as §2

[20] = test system: Streptococcus agalactiae 150 B; assay: MIC vs. Streptococcus agalactiae 150 B; assay type: cell-based; design: unit not given beside the values; settings: Incubated at 37° C. overnight
Description: as §1

[21] = test system: Streptococcus uberis 150 L; assay: MIC vs. Streptococcus uberis 150 L; assay type: cell-based; design: unit not given beside the values; settings: Incubated at 37° C. overnight
Description: as §1

[22] = test system: Pasteurella multocida ATCC 12945; assay: MIC vs. Pasteurella multocida ATCC 12945; assay type: cell-based; settings: Incubated at 37° C. overnight
Description: as §2

[23] = test system: Streptococcus uberis 166 L; assay: MIC vs. Streptococcus uberis 166 L; assay type: cell-based; design: unit not given beside the values; settings: Incubated at 37° C. overnight
Description: as §1

[24] = test system: Salmonella typhimurium; assay: MIC vs. Salmonella typhimurium; assay type: cell-based; settings: Incubated at 37° C. overnight
Description: as §2

[25] = test system: Pasteurella haemolytica 114F (bovine); assay: MIC vs. Pasteurella haemolytica 114F (bovine); assay type: cell-based; settings: Incubated at 37° C. overnight
Description: as §2

[26] = approximately 25 mg/5 mL dose per half, 2 consecutive milkings 12 hours apart

SMILES	MIC vs. Staphylococcus epidermidis 174B [1]	MIC vs. Streptococcus uberis 167I [3]	MIC vs. Streptococcus agalactiae 150G [4]	MIC vs. Staphylococcus aureus 10,092 [5]	MIC vs. Staphylococcus aureus 168H [6]	MIC vs. Streptococcus dysgalactiae 152B [7]	MIC vs. Streptococcus faecalis [9]	MIC vs. Staphylococcus aureus 170C [10]	MIC against Pasteurella haemolytica Strain 128K [2]	% Bacteriologic Cures [8, 26]	other results
O=C(COc1c(F)c(F)c(C(F)(F)F)c(F)c1F)NC1C(=O)N2C(C(=O)O)=C(Cl)CSC12 (stereo not shown) [Compound 10]	–	–	–	–	–	–	–	–	–	57%	–
O=C(COc1c(F)c(F)c(F)c(F)c1F)NC1C(=O)N2C(C(=O)O)=C(Cl)CSC12 (stereo not shown) [Compound 1]	–	–	–	–	–	–	–	–	–	–	MIC vs. Escherichia coli [11]: >128; MIC vs. Pasteurella multocida 10,102 (bovine) [12]: 0.5; MIC vs. S. aureus F1C [13]: 0.5; MIC vs. Streptococcus dysgalactiae [14]: 0.125; MIC vs. Pasteurella haemolytica 129R (bovine) [15]: 4; MIC vs. Pasteurella multocida 108E (bovine) [16]: 0.5; MIC vs. S. aureus 174 C [17]: 0.5; MIC vs. Pasteurella haemolytica 128K (bovine) ([2]; Table 3, incubated at 37° C. overnight): 4; MIC vs. S. aureus 10092 ([5]; Table 2, incubated at 37° C. overnight): 0.25; MIC vs. S. aureus ATCC 29213 [18]: 0.5; MIC vs. Pasteurella multocida 1051 (swine) [19]: 0.5; % Bacteriologic Cures ([8]; dosing was 100 mg/5 mL dose): 75* %; MIC vs. Streptococcus agalactiae 150 B [20]: 0.125; MIC vs. Streptococcus uberis 150 L [21]: 0.25; MIC vs. Pasteurella multocida ATCC 12945 [22]: 0.125; MIC vs. Streptococcus uberis 166 L [23]: 0.25; MIC vs. Salmonella typhimurium [24]: >128; MIC vs. Pasteurella haemolytica 114F (bovine) [25]: 4
O=C(COc1cc(F)cc(F)c1)NC1C(=O)N2C(C(=O)O)=C(Cl)CSC12 (stereo not shown) [Compound 6]	0.5	32	0.5	0.5	2	0.25	32	4	4	75%	–

Now from value to molecule, other results behind:

MIC vs. Staphylococcus epidermidis 174B [1]	MIC vs. Streptococcus uberis 167I [3]	MIC vs. Streptococcus agalactiae 150G [4]	MIC vs. Staphylococcus aureus 10,092 [5]	MIC vs. Staphylococcus aureus 168H [6]	MIC vs. Streptococcus dysgalactiae 152B [7]	MIC vs. Streptococcus faecalis [9]	MIC vs. Staphylococcus aureus 170C [10]	SMILES	MIC against Pasteurella haemolytica Strain 128K [2]	% Bacteriologic Cures [8, 26]	other results
2	128	2	4	16	2	>128	1	O=C(COc1c(F)c(F)c(F)c(F)c1F)NC1C(=O)N2C(C(=O)O)=C(Cl)CCC12 (stereo not shown) [Compound 7]	32	13%	–
0.5	4	0.5	0.5	0.5	0.5	8	0.5	O=C(CSc1c(F)c(F)c(F)c(F)c1F)NC1C(=O)N2C(C(=O)O)=C(Cl)CSC12 (stereo not shown) [Compound 9]	4	63%	–

Reference: US6369049B1, “Treatment of mastitis” (Eli Lilly and Company, priority 1998, dated 2002)
